Measured values reported in patent US7745465B2, “Method of enhancing cellular production of molecular chaperone, hydroxylamine derivatives useful for enhancing the chaperone production and the preparation thereof” (CytRx Corporation, priority 1995, dated 2010).

Key:
Male Sprague-Dawley rats = assay: Protection against cardiac ischaemia: survival after 5 minutes coronary occlusion and reperfusion; format: in vivo, rat; settings: i.v. 1 mg/kgbw, 5 min. before the occlusion; non-treated control 10
[1] = system: Rats with genetic hypertension; assay: Morphological examination of the thoracic aorta of rats with genetic hypertension; format: in vivo, rat; settings: daily oral treatment (20 mg/kg 8 days or 5 mg/kg 20 days)
Experimental: Rats with genetic hypertension were divided into four groups of four. The groups were treated daily, orally, the first group with physiological saline, the second group with N-[2-hydroxy-3-(1-piperidinyl)]-propoxy-3-pyridine-carboximidoyl-chloride maleate (20 mg/kg) for 8 days, the third group with N-[2-hydroxy-3-(1-piperidinyl)-propoxy]-benzimidoyl-chloride monohydrochloride (5 mg/kg) for 20 days and the fourth group with N-[2-hydroxy-3-(1-piperidinyl)-propoxy]-2-thiophenecarboximidoyl-chloride monohydrochloride (5 mg/kg) for 20 days. Animals were sacrificed, aortas were isolated, snap frozen in liquid nitrogen and were stored at −70° C. till they were used.
The examination was performed according to published methods (Br. J. of Pharmacol., 1995; 115, […]). A 1 mm^2 area of the thoracic aorta was excised and fixed in 2.5% glutaral-dehyde at room temperature. Post fixation was performed in 1% osmium-tetroxide for one hour. The tissue was dehydrated in ethanol and was embedded in Durcupan ACM. Pictures were taken by a Hitachi 7100 electronmicroscope and were evaluated qualitatively.

HSP72 [2] = assay: Heat stress induced HSP72 production in 3T3 cells; format: cell-based, mouse; settings: 10^−5 M
In short: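 Mouse 3T3 fibroblasts in MEM monolayer were heat-stressed 30 min at 43° C, with test compounds at 10^−5 M given 15 min before or 100 min after stress. HSP72 detected by immunoblot with SPA 810 primary and HRP secondary antibodies, quantified by densitometry.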

Hsp72 [3] = assay: Heat stress induced hsp72 expression in rat spleen explant; format: cell-based; settings: 10^−5 M, 15 min. before 43° C. 30 min.
Experimental: These experiments were performed on rat spleen and testicular tissue explants applying heat stress after treatment with the experimental compounds. Experiments on spleen suspension were carried out as follows.
Spleens of CFY rats weighing 200 g were removed aseptically, and were homogenized in 10% fetal bovine serum containing MEM culture medium. The concentration of the cell suspension was adjusted to 50-100 mg/5 ml.
Five ml cell suspension was given into each of the culture dishes of 6 cm of diameter and the explants were incubated for one hour in a 5% CO2 containing humidified air at 37° C. then cultures were treated with the 10^−5 M concentration of the test compounds. After further 15 min. incubation at 37° C. the cultures were exposed to heat shock at 43° C. for 30 min. in an incubator. The amount of the induced hsp72 was measured after a further 6 hours incubation at 37° C.

Hsp72 [4] = assay: Heat stress induced hsp72 expression in rat testicular explant; format: cell-based; settings: 10^−5 M, 15 min. before 43° C. 30 min.
Experimental: Testis of CFY rats weighing of 200 g were removed in sterile conditions and the released testicular tubuli were suspended in 10% fetal bovine serum containing MEM culture medium in that way that five ml suspension contained 50-100 mg tissue. The explants were incubated in 5% CO2 containing humidified air at 37° C. for one hour, then the cultures were treated with 10^−5 M concentration of the tested compounds. After a further incubation for 15 min. at 37° C., explants were exposed to heat shock at 43° C. for 30 min. The amount of the induced hsp72 was measured after a further 6 hours incubation at 37° C.

hsp72 [5] = assay: HgCl2 stress induced hsp72 level in HeLa cells; format: cell-based, human; settings: 10^−5 M, 0.5 μg/ml HgCl2, 6 hours
Experimental: From the applied cells the 3T3 and L-929 mouse fibroblasts were cultured in MEM medium and grew in monolayer, the U-937 human leukemia cells were maintained in RPMI-1640 medium, in suspension culture, while the HeLa human epithelial cells were cultured in DMEM medium and in monolayer form. Cell cultures were maintained as described in example 6.2 (a) with the difference that cells were cultured in the above mentioned culture mediums.
Experiments were carried out applying stress before and after the drug treatment. Stress was provoked by heat, by chemical agent, HgCl2 treatment. The test compounds were applied in the treatments at the 10^−5 M concentration.
These experiments were performed on HeLa, human epithelial and U-937, human leukemia cells using HgCl2 to induce stress response. Drug treatment was carried out before cells were exposed to the stress. Test cultures were prepared and treatments were performed as in the experiments with the 3T3 cells. After the drug treatment cells were incubated at 37° C. for 15 min. than all the cultures except two (non stressed control) were exposed to 0.5 μg/ml concentration of HgCl2 and the incubation was followed. The induced amount of hsp72 was measured 6 hours after the exposure to stress.

[6] = treatment 15 min. before 30 min. 43° C. heat stress
[7] = treatment 100 min. after 30 min. 43° C. heat stress

Row | SMILES | Survival (%) (Male Sprague-Dawley rats) | regeneration of the cells of aorta [1] | HSP72 level relative to the stress exposed control (HSP72 [2]; [6]) | HSP72 level relative to the stress exposed control (HSP72 [2]; [7]) | Level of hsp72 relative to the stress exposed control (Hsp72 [3]) | Level of hsp72 relative to the stress exposed control (Hsp72 [4]) | increase of the stress induced hsp72 level (hsp72 [5])
1 | Cl.OC(CON=C(Cl)c1cccs1)CN1CCCCC1 (centres unmarked) [Example 1, N-[2-hydroxy-3-(1-piperidinyl)propoxyl]-2-thiophenecarboximidoyl chloride monohydrochloride] | 100 | facilitated the regeneration of the cells of aorta | – | – | – | – | –
2 | c1cncc(C2=NOCC(CN3CCCCC3)N2)c1 (centres unmarked) [Example 64, 5,6-Dihydro-5-(1-piperidinyl)methyl-3-(3-pyridyl)-4H-1,2,4-oxadiazine] | 100 | – | +++ (>100%) | 0 (0 indicates that the treatment altered by ±20% the stress induced hsp72 level in the cells) | 0 (0 indicates that the treatment altered by ±20% the stress induced hsp72 level in the cells) | + + | –
3 | CC(C)(C)NCC(O)CONC(=O)c1cccc(C(F)(F)F)c1 (centres unmarked) [Example 65] | 78 | – | – | – | + (21-50%) | 0 (0 indicates that the treatment altered by ±20% the stress induced hsp72 level in the cells) | –
4 | Cl.O=[N+]([O-])c1cccc(C(Cl)=NOCCCN2CCCCC2)c1 [Example 79, O-(3-piperidinopropyl)-3-nitro-benzhydroximyl chloride hydrochloride] | 100 | – | +++ (>100%) | + (21-50%) | – | + + | more than 50%
5 | Cl.OC(CON=C(Cl)c1ccccc1)CN1CCCCC1 (centres unmarked) [N-[2-hydroxy-3-(1-piperidinyl)-propoxy]-benzimidoyl-chloride monohydrochloride] | 100 | facilitated the regeneration of the cells of aorta | + (21-50%) | – | – | + + + | more than 20%
